# Biological target: T1, KRAS G12C 1-169, his-tagged protein, GDP-loaded (Homo sapiens, UniProt P01116, G12C)
# T1 construct: KRAS G12C 1-169, his-tagged protein, GDP-loaded; His tag
# Assay: Biochemical assay: covalent modification of KRAS G12C measured by mass spectrometry
# Assay type: binding
# Conditions: after a 10 minute incubation period
# Description: Test compounds are prepared as 10 mM stock solutions in DMSO (Fisher cat #BP-231-100). KRAS G12C 1-169, his-tagged protein, GDP-loaded is diluted to 2 μM or 0.5 μM in buffer (20 mM Hepes, 150 mM NaCl, 1 mM MgCl2). Compounds are tested for activity as follows:
# Compounds are diluted to 50× final test concentration in DMSO in 96-well storage plates. Compound stock solutions are vortexed before use and observed carefully for any sign of precipitation. […] The plate is then resealed with aluminum seal and stored on dry ice until analyzed as described below.
# The above described assays are analyzed by mass spectrometry according to one of the following two procedures: […]
# After another 30 minute equilibration time, a blank batch (i.e., buffer) is run to ensure equipment is operating properly. […] The method is then run and masses of each individual well recorded. […]
# The masses and peak intensities of KRAS G12C protein species are measured using a Dionex RSLCnano system (Thermo Scientific) connected to a Q Exactive Plus mass spectrometer (Thermo Scientific). […]
# The mass spectrometer is operated in profile mode at a resolution of 17500, 5 microscans, using 50 msec max injection time and an AGC target of 1×10^6, and a full mass range from 800-1850 m/z is recorded. […]
# T1 sequence (P01116 1-169 isoform P01116-2 G12C): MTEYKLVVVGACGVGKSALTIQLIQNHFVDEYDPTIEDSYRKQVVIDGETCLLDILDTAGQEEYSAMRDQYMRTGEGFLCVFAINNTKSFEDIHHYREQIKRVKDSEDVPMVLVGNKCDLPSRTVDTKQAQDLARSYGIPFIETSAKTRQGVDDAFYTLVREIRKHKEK
smiles,measurement,value
"C=CC(=O)N1C[C@H](C)N(c2nc(C3CN(C(C)C)C3)nc3c(F)c(-c4c(O)cccc4F)c(Cl)cc23)C[C@H]1C (atropisomer, axis not shown) [Compound 1, 1-((2R,5S)-4-((S)-6-chloro-8-fluoro-7-(2-fluoro-6-hydroxyphenyl)-2-(1-isopropylazetidin-3-yl)quinazolin-4-yl)-2,5-dimethylpiperazin-1-yl)prop-2-en-1-one]",binding to KRAS G12C (modification percentage),greater than 75%

# From US11639346B2, “Quinazoline derivatives as modulators of mutant KRAS, HRAS or NRAS” (Araxes Pharma LLC, priority 2017, dated 2023)
